The subject of experiment [1] is Acute hypoxia in mice; survival of the brain. The experiment is described as follows: Acute hypoxia in mice (hypobaric); brain survival time to final respiratory gasp. The following applies: 30 minutes before hypoxia, mice; for change in vivo at 300 mg/kg: 300 mg/kg I.P.; for change in vivo at 10 mg/kg: 10 mg/kg I.P.; for change in vivo at 30 mg/kg: 30 mg/kg I.P. Type of experiment: in vivo, Male CD1 mice (Charles River). The procedure: (§1) The compounds of the present invention were tested in respect of their capacity to prolong the survival of cerebral tissue during acute hypoxia in mice, or to maintain the level of tissue energy-rich compounds in rats subjected to a fall in the oxygen supply [Pharmacology of Cerebral Ischemia, p. 334-339 (1968) Elsevier Science Publishers B.V., J. Krieglstein ed.]. […] Forsch. Drug. Res. (1986), 36 II No. 9, p. 1314-1320].
The survival of the brain is assessed by measuring the time at which the final respiratory gasp is observed.
The survival time of a treated batch is compared with that of a control batch receiving only the solvent.
The percentage increase in the survival time after the animals are treated with the compounds of the invention is shown in Table II.

Experiment [2] concerns brain energy-rich compounds (ATP, ADP, AMP). Put plainly: Acute hypoxia in rats; protection of tissue energy-rich compounds in brain (ATP, energy content). Type of experiment: in vivo, Male Fischer 344 rats (Charles River). Particulars: 100 mg/kg I.P., 3% oxygen for 2 minutes. The procedure:
as §1
Whereas the control rats breath a gaseous mixture containing 21% of oxygen and 79% of nitrogen, the rats subjected to hypoxia breath a mixture of 3% oxygen and 97% nitrogen for 2 minutes.
At the end of the hypoxic period, the animals are rapidly sacrificed by total immersion in liquid nitrogen. The frozen brain is removed and the energy-rich compounds (ATP, ADP, AMP) are extracted and assayed by the luciferin luminescence method.
The tissue energy content (EC) is calculated according to ATKINSON's formula: [formula]

The mark [3] stands for this setting: Mus musculus, ip, 100 mg/kg I.P., read-out: Percentage increase in the survival time.
[4] abbreviates: Mus musculus, ip, read-out: Percentage increase in the survival time.

Counter-ions that a name gives are not always drawn. Where only a bound is given, the exact number is not on record here.

Regarding `O=C(O)CC1(c2ccccc2)C(=O)Oc2ccc(Cl)cc21` (stereo not drawn) [Example 1, 2-(5-Chloro-2,3-dihydro-2-oxo-3-phenyl-3-benzofuranyl)acetic acid], the change in vivo at 100 mg/kg in experiment [1] (setting [3]) came out at 46%. Moreover, in experiment [2], the “% inhibition of the effects of hypoxia, ATP” value is on record as 54% and the “% inhibition of the effects of hypoxia, EC (tissue energy content)” value is listed as 61.7%.

As for `O=C(O)CC1(c2ccccc2)C(=O)Oc2ccc(F)cc21` (stereo not drawn) [Example 2, 2-(2,3-Dihydro-5-fluoro-2-oxo-3-phenyl-3-benzofuranyl)acetic acid], the change in vivo at 100 mg/kg in experiment [1] (setting [3]) turned out to be 38%.

In the case of `O=C(O)CC1(c2ccccc2)C(=O)Oc2ccccc21` (stereo not drawn) [Example 3, 2-(2,3-Dihydro-2-oxo-3-phenyl-3-benzofuranyl) acetic acid], the change in vivo at 100 mg/kg in experiment [1] (setting [3]) is 29%.

Regarding `O=C(O)CC1(c2ccc(Cl)cc2)C(=O)Oc2ccccc21` (stereo not drawn) [Example 4, 2-[3-(4-Chlorophenyl)-2,3-dihydro-2-oxo-3-benzofuranyl)acetic acid], the change in vivo at 100 mg/kg in experiment [1] (setting [3]) turned out to be 17%.

In the case of `O=C(O)CC1(c2ccccc2)C(=O)Oc2ccc(O)cc21` (stereo not drawn) [Example 5, 2-(2,3-Dihydro-5-hydroxy-2-oxo-3-phenyl-3-benzofuranyl)acetic acid], the change in vivo at 100 mg/kg in experiment [1] (setting [3]) worked out at 69%.

Take `COc1ccc2c(c1)C(CC(=O)O)(c1ccccc1)C(=O)O2` (stereo not drawn) [Example 6, 2-(2,3-Dihydro-5-methoxy-2-oxo-3-phenyl-3-benzofuranyl)acetic acid]: in experiment [1] (setting [3]), the change in vivo at 100 mg/kg is 41%.

`O=C(CC1(c2ccccc2)C(=O)Oc2ccc(O)cc21)OCc1ccccc1` (stereo not drawn) [Example 7]: in experiment [1] (setting [3]), the change in vivo at 100 mg/kg was 14%. Also, the change in vivo at 300 mg/kg in experiment [1] (setting [4]) amounted to 156%.

For the molecule `CCOC(=O)CC1(c2ccccc2)C(=O)Oc2ccc(Cl)cc21` (stereo not drawn) [Example 8, 2-(5-Chloro-2,3-dihydro-2-oxo-3-phenyl-3-benzofuranyl)acetic acid ethyl ester], in experiment [1] (setting [3]), the change in vivo at 100 mg/kg was 52%.

As for `CCN(CC)C(=O)CC1(c2ccccc2)C(=O)Oc2ccc(Cl)cc21` (stereo not drawn) [Example 10, N,N-Diethyl-2-(5-chloro-2,3-dihydro-2-oxo-3-phenyl-3-benzofuranyl)acetamide], the change in vivo at 100 mg/kg in experiment [1] (setting [3]) came to 97%.

Regarding `CC(C)C[C@@H](C(=O)O)N(C)C(=O)CC1(c2ccccc2)C(=O)Oc2ccc(Cl)cc21` (stereo partly drawn) [Example 11, N-Methyl-N-[2-(5-chloro-2,3-dihydro-2-oxo-3-phenyl-3-benzofuranyl)acetyl]leucine], the change in vivo at 100 mg/kg in experiment [1] (setting [3]) stood at 159%.

With `CCN(CC)CCN(C)C(=O)CC1(c2ccccc2)C(=O)Oc2ccc(Cl)cc21` (stereo not drawn) [Example 12, N-Methyl-N-diethylaminoethyl-2-(5-chloro-2,3-dihydro-2-oxo-3-phenyl-3-benzofuranyl)acetamide hydrochloride], the change in vivo at 3 mg/kg in experiment [1] (Mus musculus, ip, 3 mg/kg I.P., read-out: Percentage increase in the survival time) was 32%. For the same molecule, in experiment [1] (setting [4]), the change in vivo at 10 mg/kg is 41% and the change in vivo at 30 mg/kg was 84%. In addition, in experiment [1] (setting [3]), the change in vivo at 100 mg/kg was > 180%.

Regarding `O=C(O)[C@@H]1CCCN1C(=O)CC1(c2ccccc2)C(=O)Oc2ccc(Cl)cc21` (stereo partly drawn) [Example 13, N-[2-(5-chloro-2,3-dihydro-2-oxo-3-phenyl-3-benzofuranyl)acetyl]proline], in experiment [1] (setting [3]), the change in vivo at 100 mg/kg turned out to be 8%.

Take `O=C(CC1(c2ccccc2)C(=O)Oc2ccc(Cl)cc21)N1CCOCC1` (stereo not drawn) [Example 14, 2-(5-Chloro-2,3-dihydro-2-oxo-3-phenyl-3-benzofuranyl)-1-morpholino-1-oxoethane]: the change in vivo at 100 mg/kg in experiment [1] (setting [3]) was determined as 88%.

For the molecule `O=C(CC1(c2ccccc2)C(=O)Oc2ccc(Cl)cc21)N1CCN(CCO)CC1` (stereo not drawn) [Example 15, 2-(5-Chloro-2,3-dihydro-2-oxo-3-phenyl-3-benzofuranyl)-1-[4-(2-hydroxyethyl)piperazinyl]-1-oxoethane hydrochloride], in experiment [1] (setting [4]), the change in vivo at 10 mg/kg was 34% and the change in vivo at 30 mg/kg was found to be 41%. Besides, the change in vivo at 100 mg/kg in experiment [1] (setting [3]) is > 130%. Besides, the change in vivo at 200 mg/kg in experiment [1] (Mus musculus, ip, 200 mg/kg I.P., read-out: Percentage increase in the survival time) came out at 203%.

For the molecule `O=C(CC1(c2ccccc2)C(=O)Oc2ccc(Cl)cc21)N1CCN(Cc2ccccc2)CC1` (stereo not drawn) [Example 17, 2-(5-Chloro-2,3-dihydro-2-oxo-3-phenyl-3-benzofuranyl)-1-(4-benzylpiperazinyl)-1-oxoethane], the change in vivo at 30 mg/kg in experiment [1] (setting [4]) came out at 40%. Also, in experiment [1] (setting [3]), the change in vivo at 100 mg/kg was 66%.

In the case of `O=C(CC1(c2ccccc2)C(=O)Oc2ccc(Cl)cc21)N1CCN(c2cccc(C(F)(F)F)c2)CC1` (stereo not drawn) [Example 18, 2-(5-Chloro-2,3-dihydro-2-oxo-3-phenyl-3-benzofuranyl)-1-[4-(3-trifluoromethylphenyl)piperazinyl)-1-oxoethane hydrochloride], in experiment [1] (setting [4]), the change in vivo at 10 mg/kg stood at 41%, the change in vivo at 30 mg/kg turned out to be 53% and the change in vivo at 300 mg/kg was determined as 103%. In experiment [1] (setting [3]), the change in vivo at 100 mg/kg was found to be 88%.

Regarding `Cc1cccc(N2CCN(C(=O)CC3(c4ccccc4)C(=O)Oc4ccc(Cl)cc43)CC2)c1` (stereo not drawn) [Example 19, 2-(5-Chloro-2,3-dihydro-2-oxo-3-phenyl-3-benzofuranyl)-1-[4-(3-methylphenyl)piperazinyl]-1oxoethane hydrochloride], in experiment [1] (setting [3]), the change in vivo at 100 mg/kg came out at 76%.

For the molecule `CN(CC(=O)O)C(=O)CC1(c2ccccc2)C(=O)Oc2ccccc21` (stereo not drawn) [Example 21, N-Methyl-N-[2-(2,3-dihydro-2-oxo-3-phenyl-3-benzofuranyl)acetyl]glycine], the change in vivo at 100 mg/kg in experiment [1] (setting [3]) came out at 14%.

Take `O=C(CC1(c2ccccc2)C(=O)Oc2ccccc21)N1CCN(Cc2ccc3c(c2)OCO3)CC1` (stereo not drawn) [Example 22, 2-(2,3-Dihydro-2-oxo-3-phenyl-3-benzofuranyl)-1-[4-(3,4-methylenedioxybenzyl)piperazinyl]-1-oxoethane hydrochloride]: in experiment [1] (100 mg/kg I.P., listed as Ex. 22, hydrochloride), the “Percentage increase in the survival time” value is recorded as “+126%”. For the same molecule, in experiment [1] (setting [4]), the change in vivo at 10 mg/kg came out at 11% and the change in vivo at 30 mg/kg came out at 42%. In experiment [1] (setting [3]), the change in vivo at 100 mg/kg worked out at 126%.

For `Cc1cccc(CN2CCN(C(=O)CC3C(=O)Oc4ccccc43)CC2)c1` (stereo not drawn) [Example 25, 2-(2,3-Dihydro-2-oxo-3-benzofuranyl)-1-[4-(3-methylbenzyl)piperazinyl]-1-oxoethane hydrochloride], in experiment [2], the “% inhibition of the effects of hypoxia, ATP” value is 50.5% and the “% inhibition of the effects of hypoxia, EC (tissue energy content)” value was determined as 52.6%.

On to `Cc1cccc(N2CCN(C(=O)CC3C(=O)Oc4ccc(Cl)cc43)CC2)c1` (stereo not drawn) [Example 26, 2-(5-Chloro-2,3-dihydro-2-oxo-3-benzofuranyl)-1-[4-(3-methylphenyl)piperazinyl]-1-oxoethane hydrochloride], for which, in experiment [1] (setting [4]), the change in vivo at 10 mg/kg is 52%, the change in vivo at 30 mg/kg was found to be 53% and the change in vivo at 300 mg/kg was determined as 190%. For the same molecule, the change in vivo at 100 mg/kg in experiment [1] (setting [3]) is > 130%.

With `O=C(CC1(c2ccccc2)C(=O)Oc2ccc(Cl)cc21)N1CCN(c2cc(C(F)(F)F)ccn2)CC1` (stereo not drawn) [Example 27, 2-(5-Chloro-2,3-dihydro-2-oxo-3-phenyl-3-benzofuranyl)-1-[4-(4-trifluoromethyl-2-pyridyl)piperazinyl]-1-oxoethane], in experiment [1] (setting [4]), the change in vivo at 10 mg/kg was 36% and the change in vivo at 30 mg/kg was found to be 59%. Also, the change in vivo at 100 mg/kg in experiment [1] (setting [3]) is 76%.

With `CN(C(=O)CC1(c2ccccc2)C(=O)Oc2ccc(Cl)cc21)[C@@H](Cc1ccccc1)C(=O)O` (stereo partly drawn) [Example 28, N-[2-(5-Chloro-2,3-dihydro-2-oxo-3-phenyl-3-benzofuranyl)acetyl]-N-methylphenylalanine], the change in vivo at 100 mg/kg in experiment [1] (setting [3]) was determined as 90%.

For `O=C(O)CN1CCN(C(=O)CC2(c3ccccc3)C(=O)Oc3ccc(Cl)cc32)CC1` (stereo not drawn) [Example 29, 2-(5-Chloro-2,3-dihydro-2-oxo-3-phenyl-3-benzofuranyl)-1-(4-carboxymethylpiperazinyl)-1-oxoethane hydrochloride], the change in vivo at 30 mg/kg in experiment [1] (setting [4]) was determined as 32%. Also, the change in vivo at 100 mg/kg in experiment [1] (setting [3]) turned out to be 66%.

On to `COc1cccc(C2CCCN(C(=O)CC3(c4ccccc4)C(=O)Oc4ccc(Cl)cc43)C2)c1` (stereo not drawn) [Example 30, 2-(5-Chloro-2,3-dihydro-2-oxo-3-phenyl-3-benzofuranyl)-1-[3-(3-methoxyphenyl)piperidyl]-1-oxoethane], for which, in experiment [1] (setting [4]), the change in vivo at 10 mg/kg worked out at 32% and the change in vivo at 30 mg/kg was determined as 36%. Also, in experiment [1] (setting [3]), the change in vivo at 100 mg/kg was determined as 103%.

For `CCN1CCCC1CN(C)C(=O)CC1(c2ccccc2)C(=O)Oc2ccc(Cl)cc21` (stereo not drawn) [Example 32, 2-(5-Chloro-2-oxo-3-phenyl-3-benzofuranyl)-1-[(1-ethylpyrrolidinyl)methyl]methylamino-1-oxoethanehydrochloride], the change in vivo at 30 mg/kg in experiment [1] (setting [4]) is 26%.

Values taken from US4885299A, “2-(2,3-dihydro-2-oxo-3-benzofuranyl)acetic acids antihypoxic and nootropic effects having” (ADIR Et Cie, priority 1987, dated 1989).
